Where “and” joins values, the source holds several entries; their conditions need not be identical. Equal entries are not always repeated. Toxic doses and inconclusive results are not listed. How the source made its calls: active means survival T/C of 150% or more; inactive means T/C below 125% in these data.
Tested on: CD2F1 mice, L1210 leukemia ip, survival T/C
Test: NCI In Vivo Anticancer Drug Screen. Data for tumor model L1210 Leukemia (intraperitoneal) in CD2F1 (CDF1) mice
Details: higher = longer survival
How it was run: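 Tumor-bearing mice (transplanted tumor) were split into treated and vehicle control groups, and the measured endpoint of each treated group was divided by that of its vehicle controls.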

[1] = endpoint: mean survival time, dose: 100.0 mg/kg/injection, schedule: Q04DX003 (ip), vehicle: saline with Tween-80
[2] = endpoint: mean survival time, dose: 200.0 mg/kg/injection, schedule: Q04DX003 (ip), vehicle: saline with Tween-80
[3] = endpoint: mean survival time, dose: 400.0 mg/kg/injection, schedule: Q04DX003 (ip), vehicle: saline with Tween-80
[4] = endpoint: mean survival time, dose: 100.0 mg/kg/injection, schedule: Q04DX002 (ip), vehicle: saline with Tween-80
[5] = endpoint: mean survival time, dose: 50.0 mg/kg/injection, schedule: Q01DX009 (ip), vehicle: saline
[6] = endpoint: mean survival time, dose: 100.0 mg/kg/injection, schedule: Q01DX009 (ip), vehicle: saline
[7] = endpoint: mean survival time, dose: 200.0 mg/kg/injection, schedule: Q01DX009 (ip), vehicle: saline
[8] = endpoint: mean survival time, dose: 100.0 mg/kg/injection, schedule: Q01DX009 (ip), vehicle: saline with Tween-80
[9] = endpoint: mean survival time, dose: 200.0 mg/kg/injection, schedule: Q01DX009 (ip), vehicle: saline with Tween-80
[10] = endpoint: mean survival time, dose: 400.0 mg/kg/injection, schedule: Q01DX009 (ip), vehicle: saline with Tween-80
[11] = endpoint: mean survival time, dose: 100.0 mg/kg/injection, schedule: Q04DX003 (ip), vehicle: saline
[12] = endpoint: mean survival time, dose: 200.0 mg/kg/injection, schedule: Q04DX003 (ip), vehicle: saline
[13] = endpoint: mean survival time, dose: 400.0 mg/kg/injection, schedule: Q04DX003 (ip), vehicle: saline

Measured: T/C

C=CN1CCCC1=O
inactive: [1] 98 % of control | [2] 101 % of control | [3] 95 % of control | endpoint: mean survival time, dose: 1400.0 mg/kg/injection, schedule: Q01DX001 (ip), vehicle: saline 101 % of control | endpoint: mean survival time, dose: 1600.0 mg/kg/injection, schedule: Q01DX001 (ip), vehicle: saline 110 % of control | endpoint: mean survival time, dose: 1800.0 mg/kg/injection, schedule: Q01DX001 (ip), vehicle: saline 117 % of control | endpoint: mean survival time, dose: 2000.0 mg/kg/injection, schedule: Q01DX001 (ip), vehicle: saline 114 % of control | endpoint: median survival time, dose: 1.9 grams/kg/injection, schedule: Q01DX001 (iv), vehicle: saline 100 % of control | endpoint: median survival time, dose: 1.9 grams/kg/injection, schedule: Q01DX005 (iv), vehicle: saline 112 % of control | endpoint: median survival time, dose: 1.9 grams/kg/injection, schedule: Q03HX008 (ip), vehicle: saline 112 % of control | endpoint: median survival time, dose: 1.9 grams/kg/injection, schedule: Q03HX016 (ip), vehicle: saline 106 % of control | endpoint: median survival time, dose: 1.9 grams/kg/injection, schedule: Q03HX024 (ip), vehicle: saline 112 % of control | endpoint: median survival time, dose: 1.9 grams/kg/injection, schedule: Q04DX003 (iv), vehicle: saline 112 % of control | endpoint: median survival time, dose: 3.8 grams/kg/injection, schedule: Q01DX001 (ip), vehicle: saline 112 % of control | endpoint: median survival time, dose: 3.8 grams/kg/injection, schedule: Q01DX001 (iv), vehicle: saline 100 % of control | endpoint: median survival time, dose: 3.8 grams/kg/injection, schedule: Q01DX005 (ip), vehicle: saline 100 % of control | endpoint: median survival time, dose: 3.8 grams/kg/injection, schedule: Q01DX005 (iv), vehicle: saline 100 % of control | endpoint: median survival time, dose: 3.8 grams/kg/injection, schedule: Q01DX009 (ip), vehicle: saline 100 % of control | endpoint: median survival time, dose: 3.8 grams/kg/injection, schedule: Q03HX008 (ip), vehicle: saline 112 % of control | endpoint: median survival time, dose: 3.8 grams/kg/injection, schedule: Q03HX016 (ip), vehicle: saline 112 % of control | endpoint: median survival time, dose: 3.8 grams/kg/injection, schedule: Q03HX024 (ip), vehicle: saline 112 % of control | endpoint: median survival time, dose: 3.8 grams/kg/injection, schedule: Q04DX003 (ip), vehicle: saline 106 % of control | endpoint: median survival time, dose: 3.8 grams/kg/injection, schedule: Q04DX003 (iv), vehicle: saline 112 % of control | endpoint: median survival time, dose: 3.8 grams/kg/injection, schedule: Q08DX002 (ip), vehicle: saline 106 % of control | endpoint: median survival time, dose: 7.5 grams/kg/injection, schedule: Q01DX001 (ip), vehicle: saline 100 % of control | endpoint: median survival time, dose: 7.5 grams/kg/injection, schedule: Q01DX001 (iv), vehicle: saline 100 % of control | endpoint: median survival time, dose: 7.5 grams/kg/injection, schedule: Q01DX005 (ip), vehicle: saline 112 % of control | endpoint: median survival time, dose: 7.5 grams/kg/injection, schedule: Q01DX005 (iv), vehicle: saline 106 % of control | endpoint: median survival time, dose: 7.5 grams/kg/injection, schedule: Q01DX009 (ip), vehicle: saline 100 % of control | endpoint: median survival time, dose: 7.5 grams/kg/injection, schedule: Q03HX008 (ip), vehicle: saline 112 % of control | endpoint: median survival time, dose: 7.5 grams/kg/injection, schedule: Q04DX003 (ip), vehicle: saline 100 % of control | endpoint: median survival time, dose: 7.5 grams/kg/injection, schedule: Q04DX003 (iv), vehicle: saline 106 % of control | endpoint: median survival time, dose: 7.5 grams/kg/injection, schedule: Q08DX002 (ip), vehicle: saline 112 % of control | endpoint: median survival time, dose: 15.0 grams/kg/injection, schedule: Q01DX001 (ip), vehicle: saline 112 % of control | endpoint: median survival time, dose: 15.0 grams/kg/injection, schedule: Q01DX009 (ip), vehicle: saline 118 % of control | endpoint: median survival time, dose: 15.0 grams/kg/injection, schedule: Q04DX003 (ip), vehicle: saline 112 % of control | endpoint: median survival time, dose: 15.0 grams/kg/injection, schedule: Q08DX002 (ip), vehicle: saline 106 % of control

CCOC(=O)C1C(=O)N(C)C(=O)N1c1ccccc1 (stereo not drawn)
inactive: endpoint: mean survival time, dose: 12.5 mg/kg/injection, schedule: Q01DX009 (ip), vehicle: other 98 % of control | endpoint: mean survival time, dose: 25.0 mg/kg/injection, schedule: Q01DX009 (ip), vehicle: other 90 % of control | endpoint: mean survival time, dose: 50.0 mg/kg/injection, schedule: Q01DX009 (ip), vehicle: other 87 % of control | endpoint: mean survival time, dose: 100.0 mg/kg/injection, schedule: Q01DX009 (ip), vehicle: other 93 % of control | endpoint: mean survival time, dose: 200.0 mg/kg/injection, schedule: Q01DX009 (ip), vehicle: other 87 % of control

CN(C)c1nc(-c2ccncc2)nc(N(C)C)n1
inactive: [4] 92 % of control

CN(C)C(=S)SCc1ccc(Cl)cc1
inactive: endpoint: mean survival time, dose: 100.0 mg/kg/injection, schedule: Q04DX003 (ip), vehicle: other 93 % of control | endpoint: mean survival time, dose: 200.0 mg/kg/injection, schedule: Q04DX003 (ip), vehicle: other 102 % of control | endpoint: mean survival time, dose: 400.0 mg/kg/injection, schedule: Q04DX003 (ip), vehicle: other 100 % of control

CCN(CC)C(=S)[S][Pb]([CH2]C)([CH2]C)[CH2]C
inactive: endpoint: mean survival time, dose: 6.25 mg/kg/injection, schedule: Q01DX009 (ip), vehicle: saline with Tween-80 96 % of control

Brc1c(Br)c(Br)c2n[nH]nc2c1Br
inactive: [5] 104 % of control | [6] 104 % of control | [7] 108 % of control

CCN(Cc1cccc(S(=O)(=O)O)c1)c1ccc(C(=C2C=CC(=[N+](CC)Cc3cccc(S(=O)(=O)O)c3)C=C2)c2ccc(S(=O)(=O)O)cc2)cc1
inactive: [8] 103 % of control | [1] 96 % of control | [9] 97 % of control | [2] 93 % of control | [10] 95 % of control | [3] 90 % of control

CN(C)N=Nc1ccc(C(=O)N/N=C/c2ccccc2[N+](=O)[O-])cc1
inactive: [11] 104 % of control | [12] 101 % of control | [13] 115 % of control

CC(NC=O)(C(=O)O)c1ccccc1 (stereo not drawn)
inactive: endpoint: mean survival time, dose: 50.0 mg/kg/injection, schedule: Q01DX001 (ip), vehicle: other 102 % of control | endpoint: mean survival time, dose: 100.0 mg/kg/injection, schedule: Q01DX001 (ip), vehicle: other 97 % of control and 90 % of control | endpoint: mean survival time, dose: 200.0 mg/kg/injection, schedule: Q01DX001 (ip), vehicle: other 100 % of control and 102 % of control | endpoint: mean survival time, dose: 400.0 mg/kg/injection, schedule: Q01DX001 (ip), vehicle: other 97 % of control

Cc1ccc(-c2[nH]c(=S)[nH]c(=O)c2CCO)cc1
inactive: [1] 91 % of control | [2] 97 % of control | [3] 93 % of control

CCOC(=O)/C=C\C1=CCCC1
inactive: [5] 102 % of control | [6] 98 % of control | [7] 102 % of control

CCCCOC(=O)C(N)=O
inactive: endpoint: mean survival time, dose: 100.0 mg/kg/injection, schedule: Q01DX009 (ip), vehicle: Klucel (hydroxypropylcellulose) (HPC) 94 % of control | [1] 97 % of control | endpoint: mean survival time, dose: 200.0 mg/kg/injection, schedule: Q01DX009 (ip), vehicle: Klucel (hydroxypropylcellulose) (HPC) 100 % of control | [2] 100 % of control | endpoint: mean survival time, dose: 400.0 mg/kg/injection, schedule: Q01DX009 (ip), vehicle: Klucel (hydroxypropylcellulose) (HPC) 93 % of control | [3] 102 % of control

O=C(O)C(=O)Cc1cccc(Cl)c1[N+](=O)[O-]
inactive: endpoint: mean survival time, dose: 37.5 mg/kg/injection, schedule: Q01DX009 (ip), vehicle: saline 97 % of control | endpoint: mean survival time, dose: 75.0 mg/kg/injection, schedule: Q01DX009 (ip), vehicle: saline 103 % of control | endpoint: mean survival time, dose: 150.0 mg/kg/injection, schedule: Q01DX009 (ip), vehicle: saline 97 % of control

c1ccc(-c2ccc(-c3nnn4ccccc34)cc2)cc1
inactive: endpoint: mean survival time, dose: 100.0 mg/kg/injection, schedule: Q01DX001 (ip), vehicle: saline 107 % of control | endpoint: mean survival time, dose: 200.0 mg/kg/injection, schedule: Q01DX001 (ip), vehicle: saline 86 % of control | endpoint: mean survival time, dose: 400.0 mg/kg/injection, schedule: Q01DX001 (ip), vehicle: saline 95 % of control

C[Si](C)(C)n1nnn(-c2ccccc2)c1=O
inactive: endpoint: mean survival time, dose: 12.5 mg/kg/injection, schedule: Q01DX009 (ip), vehicle: saline with Tween-80 97 % of control and 100 % of control | endpoint: mean survival time, dose: 25.0 mg/kg/injection, schedule: Q01DX009 (ip), vehicle: saline with Tween-80 97 % of control | endpoint: mean survival time, dose: 50.0 mg/kg/injection, schedule: Q01DX009 (ip), vehicle: saline with Tween-80 97 % of control and 101 % of control | [8] 100 % of control and 103 % of control | [9] 100 % of control and 103 % of control | [10] 101 % of control

CCOP(=S)(OCC)C(C)(C)C
inactive: [4] 107 % of control | endpoint: mean survival time, dose: 200.0 mg/kg/injection, schedule: Q04DX002 (ip), vehicle: saline with Tween-80 103 % of control | endpoint: mean survival time, dose: 400.0 mg/kg/injection, schedule: Q04DX002 (ip), vehicle: saline with Tween-80 95 % of control

Cc1c(N)c(=O)n(-c2ccccc2)n1C
inactive: [11] 97 % of control | [12] 103 % of control | [13] 101 % of control
